Key:
Settings in all cases: 72 h
HCC1937 [1] = system: HCC1937
Method in brief: (§1)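 Two sequential readouts followed a 72 h incubation of breast cancer cell lines with compound at 5 concentrations in 10-fold steps over a compound-specific 10,000-fold range: CellTox Green fluorescence (485/520 nm) for cell death, then CellTiter-Glo luminescence, after 10 min at room temperature, for viability. Each plate was normalised to 0.1 % DMSO and a positive kill control. Dose-response curves were fitted for EC50, censored at the top concentration.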

HDQ-P1 [2] = system: HDQ-P1
Method in brief: as §1

Hs578T [3] = system: Hs578T
Method in brief: as §1

MCF-10A [4] = system: MCF-10A
Method in brief: as §1

CAL-148 [5] = system: CAL-148
Method in brief: as §1

DU-4475 [6] = system: DU-4475
Method in brief: as §1

MDA-MB-453 [7] = system: MDA-MB-453
Method in brief: as §1

MDA-MB-468 [8] = system: MDA-MB-468
Method in brief: as §1

HCC1599 [9] = system: HCC1599
Method in brief: as §1

CAL-85-1 = system: CAL-85-1
Method in brief: as §1

HCC1937 [10] = system: HCC1937; remark: listed apart in the source
Method in brief: (§2)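 Viability of breast cancer cell lines was measured with CellTiter-Blue after 72 h of incubation on compound-loaded 384-well plates. Cells were seeded in 20 µl onto compound dissolved in 5 µl medium, and 2.5 µl reagent was added for 2 h at 37 °C before reading at 560/590 nm. EC50 was fitted from percent-inhibition dose-response data censored at the highest concentration, normalised per plate to vehicle and a positive kill control, with zero drug sensitivity score rows dropped.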

SK-BR-3 = system: SK-BR-3
Method in brief: as §2

Hs578T [11] = system: Hs578T; remark: listed apart in the source
Method in brief: as §2

MDA-MB-231 [12] = system: MDA-MB-231
Method in brief: as §2

BT-474 [13] = system: BT-474
Method in brief: as §2

MDA-MB-468 [14] = system: MDA-MB-468; remark: listed apart in the source
Method in brief: as §2

HCC1937 [15] = system: HCC1937; remark: listed apart in the source
Description: (§3)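 Drug sensitivity and resistance testing (DSRT) of breast cancer cell lines in 384-well plates, 5 concentrations in 10-fold dilutions over a compound-specific 10,000-fold range. After 72 h, cytotoxicity was read by CellTox Green fluorescence and viability by CellTiter-Glo luminescence (multiplexed), normalised to DMSO and benzethonium chloride controls. EC50 is the inflection point of the fitted dose-response curve (bottom asymptote free, so it can be relative for partial curves) and is censored at the highest tested concentration. Rows with DSS 0 (no meaningful response) were excluded.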

MDA-MB-436 = system: MDA-MB-436
Description: as §3

HDQ-P1 [16] = system: HDQ-P1; remark: listed apart in the source
Description: as §3

HCC1143 = system: HCC1143
Description: as §3

Hs578T [17] = system: Hs578T; remark: listed apart in the source
Description: as §3

CAL-148 [18] = system: CAL-148; remark: listed apart in the source
Description: as §3

CAL-51 = system: CAL-51
Description: as §3

MDA-MB-231 [19] = system: MDA-MB-231; remark: listed apart in the source
Description: as §3

CAL-120 = system: CAL-120
Description: as §3

BT-474 [20] = system: BT-474; remark: listed apart in the source
Description: as §3

BT-549 = system: BT-549
Description: as §3

MDA-MB-468 [21] = system: MDA-MB-468; remark: listed apart in the source
Description: as §3

HCC1599 [22] = system: HCC1599; remark: listed apart in the source
Description: as §3

MFM-223 = system: MFM-223
Description: as §3

MDA-MB-453 [23] = system: MDA-MB-453; remark: listed apart in the source
Description: as §3

MCF-10A [24] = system: MCF-10A; remark: listed apart in the source
Description: as §3

DU-4475 [25] = system: DU-4475; remark: listed apart in the source
Description: as §3

Row | Structure (SMILES) | EC50, CellTiter-Glo (HCC1937 [1]) [µM] | EC50, CellTiter-Glo (HDQ-P1 [2]) [nM] | EC50, CellTiter-Glo (Hs578T [3]) [µM] | EC50, CellTiter-Glo (MCF-10A [4]) [nM] | EC50, CellTiter-Glo (CAL-148 [5]) [nM] | EC50, CellTiter-Glo (DU-4475 [6]) [nM] | EC50, CellTiter-Glo (MDA-MB-453 [7]) [nM] | EC50, CellTiter-Glo (MDA-MB-468 [8]) [nM] | EC50, CellTiter-Glo (HCC1599 [9]) [nM] | EC50, CellTiter-Glo (CAL-85-1) [nM] | EC50, CellTiter-Blue viability (HCC1937 [10]) [nM] | EC50, CellTiter-Blue viability (SK-BR-3) [nM] | EC50, CellTiter-Blue viability (Hs578T [11]) [nM] | EC50, CellTiter-Blue viability (MDA-MB-231 [12]) [nM] | EC50, CellTiter-Blue viability (BT-474 [13]) [nM] | EC50, CellTiter-Blue viability (MDA-MB-468 [14]) [nM] | EC50, CellTox Green (HCC1937 [15]) [µM] | EC50, CellTox Green (MDA-MB-436) [nM] | EC50, CellTox Green (HDQ-P1 [16]) [µM] | EC50, CellTox Green (HCC1143) [nM] | EC50, CellTox Green (Hs578T [17]) [nM] | EC50, CellTox Green (CAL-148 [18]) [nM] | EC50, CellTox Green (CAL-51) [nM] | EC50, CellTox Green (MDA-MB-231 [19]) [nM] | EC50, CellTox Green (CAL-120) [µM] | EC50, CellTox Green (BT-474 [20]) [nM] | EC50, CellTox Green (BT-549) [µM] | EC50, CellTox Green (MDA-MB-468 [21]) [nM] | EC50, CellTox Green (HCC1599 [22]) [nM] | EC50, CellTox Green (MFM-223) [nM] | EC50, CellTox Green (MDA-MB-453 [23]) [µM] | EC50, CellTox Green (MCF-10A [24]) [nM] | EC50, CellTox Green (DU-4475 [25]) [nM]
1 | Nc1ccccc1NC(=O)c1ccc(CNc2nccc(-c3cccnc3)n2)cc1 [Mocetinostat] | 0.567 | 5520 | 3.43 | 5300 | 2270 | 1570 | 1200 | 1840 | 3020 | 2710 | 1960 | 1050 | 2670 | 2740 | 5750 | 1930 | > 10 | 1340 | 0.597 | 3360 | 629 | 5350 | 1600 | 1720 | 4.51 | 6830 | 7.7 | 961 | 2100 |  |  |  | 
2 | CCC/C=C/C=C/C(=O)O[C@H]1/C(=C/C(=O)OC)C[C@H]2C[C@H]([C@@H](C)O)OC(=O)C[C@H](O)C[C@@H]3C[C@H](OC(C)=O)C(C)(C)[C@](O)(C[C@@H]4C/C(=C/C(=O)OC)C[C@H](/C=C/C(C)(C)[C@]1(O)O2)O4)O3 [Bryostatin 1] |  |  | 0.00141 |  |  |  |  |  |  |  |  | 155 |  |  |  |  |  |  | 0.0009 |  |  |  |  |  |  |  |  |  |  |  |  |  | 
3 | Cc1c(CN2CCN(C(=O)[C@H](C)O)CC2)sc2c(N3CCOCC3)nc(-c3cnc(N)nc3)nc12 [GDC-0980] | 3.13 | 452 | 0.445 | 486 | 701 | 2480 | 226 | 894 | 1340 | 628 | 214 | 81.8 | 257 | 90.4 | 318 | 704 |  |  | 8.34 | 1460 |  | 820 | 2320 |  |  | 1390 |  |  |  | 1000 |  |  | 
4 | CC/C(=C(\c1ccc(O)cc1)c1ccc(OCCN(C)C)cc1)c1ccccc1 [4-hydroxytamoxifen] | 5.19 |  |  |  |  |  | 6910 | 3660 |  | 3340 |  |  |  |  |  |  | 1.93 | 2800 |  |  |  |  |  | 4260 | 9.17 |  |  | 92.3 |  |  | 9.55 |  | 
5 | CO[C@@H](C(=O)N1Cc2[nH]nc(NC(=O)c3ccc(N4CCN(C)CC4)cc3)c2C1)c1ccccc1 [Danusertib] |  | 7430 | 4.06 | 628 | 448 | 1530 |  | 25.2 |  |  | 344 |  | 1040 | 1180 |  | 71.9 |  | 216 | 6.85 |  | 477 |  | 348 |  | 5.63 |  | > 10 | 10.2 |  |  |  | > 10000 | 
6 | O=C(Nc1c[nH]nc1-c1nc2ccc(CN3CCOCC3)cc2[nH]1)NC1CC1 [AT9283] |  | 303 | 0.157 | 102 |  | 149 |  | 28.4 |  |  | 257 | 267 | 337 | 503 | 1630 | 841 |  |  |  |  |  |  | 0.88 | 24.6 | 0.192 |  |  | 0.51 |  |  |  |  | 
7 | O=C(NC[C@H](O)CO)c1ccncc1Nc1ccc(I)cc1F [Pimasertib] | 3.07 | 18.6 | 5.91 | 12.9 | 1010 | 21.8 |  |  |  | 1090 |  |  |  |  |  |  |  |  |  |  |  |  |  | 16.6 | 0.783 | 2840 |  |  |  |  |  |  | 48.1
8 | C[C@]12C=CC(=O)C=C1CC[C@@H]1[C@@H]2[C@@H](O)C[C@@]2(C)[C@H]1CC[C@]2(O)C(=O)CO [Prednisolone] |  |  |  |  |  |  |  |  |  |  |  |  |  |  |  |  |  |  | 7.32 |  |  |  |  |  |  |  |  |  |  |  |  |  | 
9 | Cc1c(Cn2c(C)nc3c(C(=O)O)cc(N4CCOCC4)cc32)cccc1C(F)(F)F |  |  |  |  |  |  |  | 534 |  |  |  |  |  |  |  |  |  |  |  |  |  |  |  |  |  |  |  |  |  |  |  |  | 
10 | CC[C@@]1(O)C(=O)OCc2c1cc1n(c2=O)Cc2cc3c(CN(C)C)c(O)ccc3nc2-1 [Topotecan] | 2.74 |  | 5.13 | 5600 | 221 | 496 | 1830 | 141 | 189 | 755 | 30.3 | 52 |  | 612 |  | 71.9 | 3.07 | 2720 | > 10 |  |  | 55.6 | 195 | 369 | 2.57 | > 10000 |  | 2240 | 748 |  |  | 1880 | 

From the supplement of paper PMC4862054
